Test results: patent US7754742B2, “Imidazole carboxamides” (Eli Lilly and Company, priority 2008, dated 2010)

Legend:
[1] = molecular target: T1, human mGluR2 receptor (Homo sapiens, UniProt Q14416); assay: Functional in vitro activity at human mGluR2 receptor (FLIPR calcium response, potentiator mode); format: cell-based; details: relative EC50; potentiation of glutamate EC10 response; cells expressing human mGluR2, rat EAAT 1 and Gα15
T1 construct: expressed in transfected cells; stably expresses human mGluR2, co-transfected with rat EAAT1 and Galpha15
T1 sequence (Q14416 19-872): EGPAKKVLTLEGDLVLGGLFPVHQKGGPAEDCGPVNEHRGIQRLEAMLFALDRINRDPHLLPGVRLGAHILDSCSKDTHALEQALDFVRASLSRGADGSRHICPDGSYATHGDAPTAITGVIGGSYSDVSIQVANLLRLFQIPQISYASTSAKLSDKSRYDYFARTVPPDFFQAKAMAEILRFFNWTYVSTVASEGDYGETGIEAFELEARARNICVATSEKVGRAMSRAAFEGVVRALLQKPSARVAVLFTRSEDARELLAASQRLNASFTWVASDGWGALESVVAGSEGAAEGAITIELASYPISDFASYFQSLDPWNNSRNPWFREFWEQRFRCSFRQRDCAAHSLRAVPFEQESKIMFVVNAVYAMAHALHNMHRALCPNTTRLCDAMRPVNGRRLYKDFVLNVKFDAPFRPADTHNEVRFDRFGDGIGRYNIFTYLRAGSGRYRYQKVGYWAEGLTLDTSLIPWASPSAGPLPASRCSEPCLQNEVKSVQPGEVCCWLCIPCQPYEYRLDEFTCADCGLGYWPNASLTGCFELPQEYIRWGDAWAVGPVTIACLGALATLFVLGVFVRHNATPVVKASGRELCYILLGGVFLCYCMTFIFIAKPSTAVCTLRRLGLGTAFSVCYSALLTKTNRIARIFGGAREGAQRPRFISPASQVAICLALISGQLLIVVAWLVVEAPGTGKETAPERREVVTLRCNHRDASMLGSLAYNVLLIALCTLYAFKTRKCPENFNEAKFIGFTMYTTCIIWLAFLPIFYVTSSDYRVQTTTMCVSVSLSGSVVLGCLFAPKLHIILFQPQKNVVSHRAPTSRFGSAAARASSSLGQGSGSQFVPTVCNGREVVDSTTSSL
From the text: Functional in vitro activity at human mGluR2 receptor Cell lines stably expressing the human mGluR2 receptor (see for example Desai, Burnett, Mayne, Schoepp, Mol. Pharmacol. 48, 648-657, 1995) co-transfected with the rat glutamate transporter EAAT 1 (Excitatory Amino Acid Transporter 1) and the Gα15 subunit were used for these studies. The expression of Gα15 allows this Gi-coupled receptors to couple to phospholipase C, resulting in the ability to measure receptor activation by a fluorometric calcium response assay. […]
Intracellular calcium levels were monitored before and after the addition of compounds using a Fluorometric Imaging Plate Reader (FLIPR, Molecular Devices, Union City, Calif. USA). […] The results were analyzed (GraphPad® Prism v4, Graphpad Software, LaJolla, Calif., USA) to calculate the concentrations of glutamate needed to induce the EC10 responses.
Compounds were tested in a two-addition FLIPR assay using a 10-point concentration response profile starting at a final concentration of 25 μM (agonist mode) or 12.5 μM (potentiator mode). […] After taking an initial fluorescent read of the cell plate for 5 seconds, compound was added to the cell plate (50 uL per well). […]
The maximal response was defined as that induced by ECmax (100 μM glutamate). […] Agonist effects were quantified as percent stimulation induced by compound alone relative to the maximal glutamate response. […]

[2] = tested on: Male Holtzman Sprague-Dawley rats; assay: Positive differential reinforcement in rats (DRL-72 second schedule); format: in vivo, rat; details: reinforced responses divided by total responses, 10 mg/kg, IP, dose 0 group 0.25
From the text: The differential reinforcement of low rates-72 second (DRL-72) schedule has been extensively used as a screen for clinically effective antidepressant agents including imipramine, fluoxetine, paroxetine and others (Sokolowski J D, Seiden L S. 1999. The behavioral effects of sertraline, fluoxetine, and paroxetine differ on the differential-reinforcement-of-low-rate 72-second operant schedule in the rat. Psychopharm (Berl). 147(2): 153-61). […] As such, compounds which show positive result in differential reinforcement in animals are believed to be useful in treating depression in humans.
Male Holtzman Sprague-Dawley rats are water restricted (water available 20′ per day following the test session) and trained to lever press for a 4″ access to 0.025 ml of water for each correct response during daily 60 minute sessions. All testing takes place on weekdays only. After successful lever press training, rats are then required to respond under a DRL-24 second schedule, where only lever presses that are separated by 24 seconds are reinforced. Upon stable responding on a DRL-24 second schedule, rats are trained on a DRL-72 second schedule until responding stabilizes at approximately 15% efficiency. […] Response efficiency is recorded as number of reinforced responses divided by total number of responses. […]

[3] = tested on: Male Fischer F-344 rats; assay: Attenuation of stress-induced hyperthermia in rats; format: in vivo, rat; details: p.o., 4 hr pretreatment
From the text: In many anxiety disorders, hyperthermia occurs as part of the pathology and is considered a symptom of the disease. Compounds which attenuate stress-induced hyperthermia in animals are believed to be useful in treating anxiety disorders in humans.
The conventional and minimally-invasive method for analyzing stress-induced hyperthermia is by measuring body temperature, and stress-induced increases in body temperature, via rectal thermometer. Male Fischer F-344 rats (Harlan, Indianapolis, Ind., USA) weighing between 275-350 g are tested. All animals are individually-housed with food and automated water available ad libitum, and maintained on a 12 h light/dark cycle (lights on at 06:00). Animals are fasted for approximately 12-18 hours before the experiment, which is conducted during the light phase. […]
After the pretreatment period, rats are taken individually to a brightly lit adjacent room where baseline body temperatures are determined by insertion of a rectal probe lubricated with mineral oil. Body temperature is assessed using a PHYSITEMP BAT-12® Microprobe Thermometer with a PHYSITEMP RET-2® rat rectal probe (Physitemp Instruments Inc., Clifton, N.J., USA). […] Ten minutes later a second body temperature measurement is recorded (T2). […]

- EC50 [1]: 22.5 nM
- melting point: 164.7 °C
SMILES: CC(C)C(=O)c1ccc(OCc2ccc(CNC(=O)c3cn(C)cn3)cc2)c(C(F)(F)F)c1O [Example 1, 1-Methyl-1H-imidazole-4-carboxylic acid 4-(3-hydroxy-4-isobutyryl-2-trifluoromethyl-phenoxymethyl)-benzylamide]
- Response Efficiency [2]: 0.56
- T35 dose (dose producing a 35% reduction in stress-induced hyperthermic response relative to vehicle) [3]: 3.2 mg/kg
